These results are taken from patent publication US20120283293A1, “Methods of neuroprotection involving Prostaglandin E2 EP4 (PGE2 EP4) receptor activation” (The Board of Trustees of the Leland Stanford Junior …, priority 2011, published 2012).

The test system of assay [1] is NF-κB subunits p65 and p50 in BV-2 cells. The experiment in a line: NF-κB p65/p50 nuclear translocation in LPS-stimulated BV-2 cells (Western, immunofluorescence). In kind it is cell-based, murine. The method, then: Nuclear and cytoplasmic fractions of BV-2 cells were prepared at several time points after treatment (0-120 minutes) using the nuclear extract kit from Active Motif (Carlsbad, Calif.). Briefly, cells were washed, collected in ice-cold PBS in the presence of phosphatase inhibitors, and centrifuged at 300×g for 5 min at 4° C. Cell pellets were resuspended in hypotonic buffer, treated with detergent, and centrifuged at 14,000×g for 30 sec at 4° C. After collection of the cytoplasmic fraction, nuclei were solubilized for 30 min in lysis buffer containing protease inhibitors. Lysates were centrifuged at 14,000×g for 30 min at 4° C. and supernatants were collected for NF-κB studies. To prepare whole cell lysates for phospho-Akt and phospho-IKK studies, cells were washed in ice-cold PBS and lysed in 20 mM Tris-HCl, pH 7.5, 150 mM NaCl, 1 mM Na2EDTA, 1 mM EGTA, 1% Triton, 2.5 mM sodium pyrophosphate, 1 mM β-glycerophosphate, 1 mM orthovanadate, 1 μg/ml leupeptin and 1 mM PMSF. Lysates were sonicated for 5 seconds, centrifuged at 14,000×g for 10 min at 4° C. and supernatants were collected for phospho-Akt and phospho-IKK studies. All protein concentrations were determined using the Bradford protein assay.
Western blot analysis. Protein (20 μg per lane) was fractionated using 12% SDS-PAGE and electrophoretically transferred to PVDF membranes (Bio-Rad, Hercules, Calif.). For phospho-Akt/Akt and phospho-IKK/IKK studies, membranes were probed with anti phospho-Ser473 Akt antibody or anti-phospho-IKK antibody (1:1000, Cell signaling, Beverly, Mass.) and anti-Akt and anti-IKK antibodies (1:1000; Cell Signaling). For NF-κB nuclear translocation studies, membranes were probed with anti-NF-κB p105/p50 antibody (1:5000, Abcom, Cambridge, Mass.) or anti-NF-κB p65 antibody (1:300, Santa Cruz Biotechnology). Loading controls included anti-actin antibody (1:10,000, Santa Cruz Biotechnology, Inc. Santa Cruz, Calif.) for cytosolic fractions and anti-lamin B1 antibody (1:10,000, Abcom, Cambridge, Mass.) for nuclear fractions. Immunoreactivity was detected using either sheep anti-rabbit or sheep anti-mouse HRP-conjugated secondary antibody (Amersham Biosciences, Arlington Heights, Ill.), followed by enhanced chemiluminescence (Pierce). Autoradiographic signals were quantified using NIH Image. Experiments were repeated in triplicate.
BV-2 cells were seeded on poly-L-Lysine coated glass coverslips and were maintained in culture for at least 24 hours before treatment with LPS+/−AE1-329. After one hour of treatment, cells were fixed with 4% paraformaldehyde and processed for immunocytochemistry using established protocols. NF-κB cellular localization was detected using rabbit anti-NF-κB p65 antibody (1:200, Santa Cruz Biotechnology) and Cy3-conjugated donkey anti-rabbit secondary antibody (Jackson ImmunoResearch Laboratories, West Grove, Pa.). Nuclei were visualized using Hoechst 33258 dye (MP Biomedicals, Solon, Ohio). Images were acquired using a Nikon Eclipse E600 microscope (Nikon Instruments, Melville, N.Y.) and a Hamamatsu Orca-ER digital camera (Hamamatsu Photonics, Bridgewater, N.J.). For quantification of nuclear NF-κB p65 levels, images were analyzed using the measurements module of Volocity 4.3.2 image analysis software (Improvision Inc., Waltham, Mass.). […] For data quantification, each data point represented the average NF-κB p65 signal from the nuclei in one field of view (>100 cells). […]

The test system of another assay is BV-2 cells. Description: Griess assay of nitrite production (NOS activity) in LPS-treated BV-2 cells. In kind it is cell-based, murine. Here is the method: Nitric oxide synthase (NOS) activity was measured using the Griess assay to measure nitrite production (Promega, Madison, Wis.). BV-2 cells were plated at 5×10^4 cells/well in 24-well plates, allowed to reach 90% confluence, and incubated +/−LPS (10 ng/ml)+/−AE1-329 (1 nM-1 μM) or vehicle for 24 h. […] cell culture medium and nitrite standards ([…]) were transferred to a 96-well plate and mixed with 50 μl sulphanilamide solution and 50 μl NED solution. After a 10 min incubation at room temperature, absorbance was read at 530 nm on a SpectraMax M5 plate reader (Molecular Devices, Sunnyvale, Calif.). Experiments were repeated in triplicate.
Inflammatory stimuli such as LPS can activate microglia through the CD14/TLR4 receptor complex and induce the expression of pro-inflammatory enzymes and cytokines (Fassbender et al., 2004; Walter et al., 2007). LPS-induced inflammatory responses were tested in the absence and presence of pharmacologic activation of EP4 receptor with the selective EP4 agonist AE1-329. BV-2 cells were treated with LPS (10 ng/ml) in the presence or absence of the selective EP4 agonist AE1-329 (1 μM) for 6 h, and pro-inflammatory gene expression was measured using qPCR (see FIG. 2). […] In FIG. 2D, EP4 regulation of iNOS activity was investigated.
In general terms: Nitrite, measured by Griess reagent, commonly stands in for NO production.

For `COCc1ccccc1CC[C@H](O)/C=C/[C@H]1[C@H](O)CC(=O)[C@@H]1SCCCSCC(=O)O` [AE1-329], the “nuclear p65 immunofluorescent signal” value in assay [1] (BV-2 cells, 60 minutes after LPS 100 ng/ml, AE1-329 100 nM) is “significantly attenuated”. In assay [1] (BV-2 cells, LPS 100 ng/ml, AE1-329 100 nM, vs vehicle), the “LPS-induced nuclear translocation of NF-κB subunits p65 and p50 (Western)” value is “reduced levels of NF-κB nuclear translocation”. Moreover, in assay [1] (BV-2 cells, LPS + AE1-329), the “time of maximal attenuation of nuclear translocation, NF-κB p65” value came to 60 min and the “time of maximal attenuation of nuclear translocation, p50” value was found to be 120 min. Moreover, in assay [1] (LPS-treated BV-2 cells, AE1-329 vs vehicle), the “cytoplasmic levels of p65 and p50” value is recorded as “increased”. The “LPS-induced NO production, dose response” value in the assay on BV-2 cells (BV-2 cells, 1, 10, 100 and 1000 nM AE1-329, 24 hours) is given as “dose-dependently reduced NO production”. Further, the nitrite concentration with BV-2 cells (BV-2 cells, LPS 10 ng/ml + 10 nM AE1-329, 24 hours (LPS alone 21.76 μM)) worked out at 6.57 µM. Moreover, in the assay on BV-2 cells (BV-2 cells, LPS 10 ng/ml, 10 nM AE1-329, 24 hours), the “decrease of LPS-induced NO production (nitrite)” value is listed as 68.9%.
